Assay results reported in the supplement of paper PMC10307832.

Assays:
Assay in all cases: relative viability (nuclei count vs DMSO), 5 days (fraction); higher = more cells survive
[1] = compound: CS(=O)(=O)CCNCc1ccc(-c2ccc3ncnc(Nc4ccc(OCc5cccc(F)c5)c(Cl)c4)c3c2)o1 [Lapatinib] + Nc1ncn([C@H]2C[C@H](O)[C@@H](CO)O2)c(=O)n1 [Decitabine] (partner 2 µM)
In short: (§1)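 Relative viability was taken as the ratio of nuclei in treated wells to nuclei in vehicle wells. Lung cancer cell lines in 1536-well plates received compounds by pin tool one day after seeding, either one drug alone or a fixed anchor-drug dose plus five library-drug doses (not always all listed) in √10 steps. Nuclei were counted on 4× images after 5 days of treatment, and values are medians of duplicate plates.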

[2] = compound: CC1=NC=CC(=C1)C2=CC=C(C=C2)CC(=O)NC3=CC=C(C=C3)C4=CN=CC=C4 [Wnt-C59] + CC1(C)CCC(c2ccc(Cl)cc2)=C(CN2CCN(c3ccc(C(=O)NS(=O)(=O)c4ccc(N[C@H](CCN5CCOCC5)CSc5ccccc5)c(S(=O)(=O)C(F)(F)F)c4)cc3)CC2)C1 [Navitoclax] (partner 0.5 µM)
In short: as §1

[3] = compound: CC1=NC=CC(=C1)C2=CC=C(C=C2)CC(=O)NC3=CC=C(C=C3)C4=CN=CC=C4 [Wnt-C59] + COc1cc2c(Oc3ccc(NC(=O)C4(C(=O)Nc5ccc(F)cc5)CC4)cc3F)ccnc2cc1OCCCN1CCOCC1 [Foretinib] (partner 0.25 µM)
In short: as §1

[4] = compound: CS(=O)(=O)CCNCc1ccc(-c2ccc3ncnc(Nc4ccc(OCc5cccc(F)c5)c(Cl)c4)c3c2)o1 [Lapatinib] + C[C@]1(O)C[C@@H](c2nc(-c3ccc4ccc(-c5ccccc5)nc4c3)c3c(N)nccn32)C1 [Linsitinib] (partner 1 µM)
In short: as §1

Row | Cell Line | relative viability ([1]; first compound 0.02 µM) | relative viability ([1]; first compound 0.06325 µM) | relative viability ([1]; first compound 0.2 µM) | relative viability ([1]; first compound 0.6325 µM) | relative viability ([1]; first compound 2 µM) | relative viability ([2]; first compound 0.001 µM) | relative viability ([2]; first compound 0.01 µM) | relative viability ([2]; first compound 0.03162 µM) | relative viability ([2]; first compound 0.1 µM) | relative viability ([3]; first compound 0.001 µM) | relative viability ([3]; first compound 0.01 µM) | relative viability ([3]; first compound 0.03162 µM) | relative viability ([3]; first compound 0.1 µM) | relative viability ([4]; first compound 0.02 µM) | relative viability ([4]; first compound 0.06325 µM) | relative viability ([4]; first compound 0.2 µM) | relative viability ([4]; first compound 0.6325 µM) | relative viability ([4]; first compound 2 µM)
1 | RERF-LC-KJ | 0.679 | 0.62 | 0.749 | 0.645 | 0.499 | 0.899 | 0.908 | 1.01 | 1.31 | 0.889 | 0.832 | 0.915 | 0.926 | 0.841 | 0.806 | 0.782 | 0.748 | 0.697
2 | EMC-BAC-2 | – | 0.864 | – | 0.945 | 0.956 | 1.11 | 0.97 | 1.16 | 0.969 | 0.946 | 0.964 | 0.967 | 0.561 | 0.755 | 0.732 | 0.698 | 0.623 | 0.563
3 | NCI-H522 | – | 0.645 | 0.647 | 0.683 | 0.664 | – | – | – | – | – | – | – | – | – | – | – | – | –
4 | NCI-H1651 | 0.466 | 0.608 | 0.605 | 0.633 | 0.484 | 1.07 | 1.02 | 1.11 | 0.955 | 0.985 | 0.734 | 0.858 | 0.758 | 0.946 | 0.884 | 0.922 | 0.846 | 0.9
5 | IA-LM | – | – | – | – | – | 0.851 | 0.751 | 0.718 | 0.751 | 1.23 | 1.01 | 1.11 | 1.03 | 0.655 | 0.605 | 0.583 | 0.541 | 0.792
6 | NCI-H520 | 0.433 | 0.494 | 0.572 | 0.529 | 0.575 | 1.11 | 1.13 | 1.11 | 1.05 | 0.792 | 0.696 | 0.867 | 0.689 | 0.9 | 0.799 | 1.04 | 0.992 | 1.16
7 | NCI-H1793 | – | 0.404 | 0.418 | 0.424 | 0.44 | 0.397 | 0.398 | 0.378 | 0.95 | 0.69 | – | 0.678 | 0.614 | – | – | – | 0.605 | 0.515
8 | NCI-H647 | 0.416 | 0.284 | 0.431 | 0.377 | 0.383 | 1.16 | 0.972 | 1.12 | 0.967 | 1.24 | 0.978 | 1.36 | 1.18 | 1.21 | 1.17 | 1.37 | 1.1 | 0.995
9 | HCC-44 | 0.838 | 0.908 | 0.964 | 1.02 | 0.797 | 1.01 | 0.904 | 1.02 | 0.954 | – | – | – | – | 0.709 | 0.648 | 0.628 | 0.627 | 0.493
10 | HCC-827 | 0.239 | 0.35 | 0.348 | 0.333 | 0.295 | 1.08 | 1.04 | 1.04 | 1.02 | 1.08 | 1 | 1.03 | 1.04 | 0.944 | 0.986 | 0.928 | 1.05 | 0.936
11 | NCI-H2170 | 0.503 | 0.459 | 0.477 | 0.429 | 0.182 | 0.608 | 0.35 | 0.595 | 0.527 | 0.942 | 0.991 | 1.06 | 1.01 | – | – | – | – | –
12 | Calu-6 | – | – | – | – | – | 0.801 | 0.97 | 0.757 | 0.787 | 0.856 | 0.903 | 0.936 | 0.834 | 0.891 | 0.953 | 0.947 | 0.954 | 0.848
13 | HCC-366 | – | 0.348 | 0.405 | 0.368 | 0.291 | 1.06 | 0.926 | 0.932 | 1.01 | 0.896 | 0.975 | 0.922 | 0.89 | – | 0.404 | 0.702 | 0.746 | 0.472
14 | NCI-H2405 | – | 0.602 | – | 0.709 | 0.616 | 0.946 | – | 0.702 | 0.867 | 1.04 | 0.94 | 0.938 | 0.941 | – | 0.805 | 0.918 | 0.973 | 0.768
15 | NCI-H1648 | – | 0.389 | 0.495 | 0.481 | 0.33 | – | – | – | – | – | – | – | – | – | – | – | – | –
16 | LCLC-97TM1 | – | 0.232 | 0.222 | 0.268 | 0.268 | 0.429 | 0.445 | 0.505 | 0.264 | 1.03 | 0.949 | 1.03 | 0.896 | – | – | 0.186 | 0.198 | 0.187
17 | EPLC-272H | – | 0.361 | 0.352 | 0.34 | 0.366 | 1.09 | 1 | 1.06 | 1.21 | 0.722 | 0.667 | 0.831 | 0.697 | – | 0.988 | 1.11 | 0.959 | 1.01
18 | NCI-H1755 | 0.738 | 0.752 | 0.706 | 0.735 | 0.749 | 0.983 | 0.977 | 1.01 | 1.02 | 0.884 | 0.895 | 0.55 | 0.866 | 0.983 | 0.963 | 0.982 | 0.95 | 0.714
19 | NCI-H1437 | 0.603 | 0.527 | 0.56 | 0.53 | 0.569 | 1.16 | 1.03 | 1.16 | 1.09 | 1.31 | 1.28 | 1.29 | 1.26 | 0.898 | 0.968 | 1.05 | 0.864 | 0.875
20 | PC-3 [JPC-3] | – | 0.786 | – | 0.954 | 0.598 | 0.868 | 0.815 | 0.933 | 0.809 | 1.05 | 1.12 | 1.14 | 1.05 | – | 1.01 | 0.993 | 0.994 | 0.873
21 | NCI-H727 | 0.756 | – | 0.915 | 0.915 | 0.917 | 0.554 | 0.542 | 0.459 | 0.451 | 0.983 | 0.917 | 0.887 | 0.904 | 0.259 | 0.207 | 0.278 | 0.256 | 0.236
